According to patent publication US20230041563A1, “N-(1,3,4-OXADIAZOL-2-YL)ARYLCARBOXAMIDES OR SALTS THEREOF, PREPARATION METHODS, HERBICIDAL COMPOSITIONS AND USES THEREOF” (priority 2018, published 2023):

Legend:
Abutilon theophrasti [1] = test: Weeding effect in post-emergence stage (greenhouse pot spray); format: in vivo
Outline: (§1)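 Fresh-weight control rate was assessed 3 weeks after post-emergence spray-tower application at doses of 500–15 g a.i./ha, triplicate. Weeds were treated at the 2–3 leaf stage, 2 weeks post-sowing, using acetone solutions with Tween 80 plus 1.5 L/ha methyl oleate emulsifiable concentrate.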

Digitaria sanguinalis [2] = test: as above; format: in vivo
Outline: as §1

Echinochloa crusgalli = test: as above; format: in vivo
Outline: as §1

Setaria viridis = test: as above; format: in vivo
Outline: as §1

Amaranthus retroflexus = test: as above; format: in vivo
Outline: as §1

Stellaria media = test: as above; format: in vivo
Outline: as §1

[3] = tested on: Indica rice (Huanghuazhan); test: Safety test of control experiments on rice; format: in vivo; conditions: Dose 250 g a.i./ha
From the text: (§2) The activity level criteria for plant damage (i.e., growth control rate) are as follows: Comparative Experiments: [table]

[4] = tested on: Japonica rice (Huaidao No. 5); test: Safety test of control experiments on rice; format: in vivo; conditions: Dose 250 g a.i./ha
From the text: as §2

[5] = tested on: rice and Echinochloa crusgali; test: Herbicide selection index between rice and Echinochloa crusgali; format: in vivo; conditions: average dose causing 10% phytotoxicity to rice divided by average dose causing 90% control efficiency to Echinochloa crusgali
Abutilon theophrasti [6] = test: Post-emergence control experiment of R configuration compound activity (weeds 4-5 leaf stage, 25 days); format: in vivo; conditions: Abutilon theophrasti, post-emergence; read-out: Ablation theophrasti (30 g a.i./ha) inhibition rate
Method: (§3) Experiment on weeding effect in post-emergence stage: after 3-4 weeks of sowing, the test plants were treated in the 1.5-2 leaf stage of the directly sowed rice Longyang 16, and the 4-5 leaf stage of weeds. After the application of the compounds of the present invention, the plants were cultured for 25 days in the greenhouse, and then the experimental results of the weeding were counted.

Digitaria sanguinalis [7] = test: as above; format: in vivo; conditions: Digitaria sanguinalis, post-emergence; read-out: Digitaria sanguinalis (30 g a.i./ha) inhibition rate
Method: as §3

Green Setaria viridis = test: as above; format: in vivo; conditions: Setaria viridis, post-emergence; for inhibition at 30 g/ha: read-out: Green Setaria viridis (30 g a.i./ha) inhibition rate; for inhibition at 60 g/ha: read-out: Green Setaria viridis (60 g a.i./ha) inhibition rate
Method: as §3

Leptochloa chinensis [8] = test: as above; format: in vivo; conditions: for inhibition at 60 g/ha / inhibition at 125 g/ha: Dinebra chinensis, post-emergence; for inhibition at 60 g/ha: read-out: Leptochloa chinensis (60 g a.i./ha) inhibition rate; for inhibition at 125 g/ha: read-out: Leptochloa chinensis (125 g a.i./ha) inhibition rate
Method: as §3

Rice (Longyang 16) = test: Post-emergence control experiment of R configuration compound activity (directly sowed rice 1.5-2 leaf stage, 25 days); format: in vivo
Method: as §3
Longyang 16 is a representative and important long-grain fragrant rice in Northeast China. Long-grain fragrant rice is more sensitive to herbicides, especially to HPPD herbicides such as Mesotrione, Benzobicylon and the like, which are prone to causing phytotoxicity.

Echinochloa crusgali = test: Transplanted rice safety evaluation and weed control effect evaluation in rice field; format: in vivo
Outline: (§4)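 Paddy-soil pots, seeds sown and flooded (0.5-1 cm, then 3-4 cm water); Sagittaria grown from tubers. WP or SC dilutions dripped on at 0.5-leaf stage (Sagittaria at primary leaf). Visual 0-5 scoring of weeds at 14 days, rice at 21 days.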

Monochoria vaginalis = test: as above; format: in vivo
Outline: as §4

Scirpus juncoides = test: as above; format: in vivo; conditions: Table 7, dose 125 g a.i./ha, 14 days after treatment
Outline: as §4

Rice = test: as above; format: in vivo, rice (japonica rice/Indica rice)
Outline: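 Japonica and Indica rice at 3-leaf stage transplanted into flooded paddy soil (3-4 cm water). Compound applied 5 days after transplanting. Weeds scored visually on 0-5 scale at 14 days; rice injury at 21 days.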

[9] = tested on: gramineous weed (Echinochloa crusgali, Leptochloa chinensis or Digitaria sanguinalis); test: Post-emergence activity on gramineous weed, comparison between compounds; format: in vivo; conditions: at low doses; versus Compound 1-2
From the text: Experiment on weeding effect in post-emergence stage: monocotyledonous and dicotyledonous weed seeds (Descurainia sophia, Capsella bursa-pastoris, Abutilon theophrasti, Galium aparine, Stellaria media, Lithospermum arvense, rorippa indica, Alopecurus aequalis, Beckmannia syzigachne, Sclerochloa dura, Phleum paniculatum, Bromus japonicus, Aegilops tauschii, Phalaris arundinacea, Amaranthus retroflexus, Chenopodiaceae, Commelina communis, Sonchus arvensis, convolvulus arvensis, Cirsium setosum, Solanum nigrum, Acalypha australis, Digitaria sanguinalis, Echinochloa crusgalli, Setaria viridis, Setaria glauca, Leptochloa chinensis, Monochoria vaginalis, Sagittaria trifolia, Scirpus juncoides, Cyperus rotundus, Cyperus iria, Cyperus difformis, Fimbristylis, Portulaca oleracea, Xanthium sibiricum, Pharbitis nil) and major crop seeds (wheat, corn, rice, soybean, cotton, oilseed rape, millet, sorghum, potato, sesame, ricinus) were placed in plastic pots filled with soil, then covered with 0.5-2 cm of soil, allowed to grow in a good greenhouse environment. After 2 weeks of sowing, the test plants were treated in the 2 to 3 leaf stage. […] After the application, the plants were cultured for 3 weeks in the greenhouse, and then the experimental results of the weeding were counted. […]

Leptochloa chinensis [10] = test: Transplanted rice safety evaluation and weed control effect evaluation in rice field; format: in vivo; conditions: Table 8, dose 60 g a.i./ha
Outline: as §4

Sagittaria trifolia = test: as above; format: in vivo; conditions: Table 8, dose 60 g a.i./ha
Outline: as §4

[11] = Table 7, dose 125 g a.i./ha, 14 days after treatment

SMILES: CCC[S+]([O-])c1c(C(F)(F)F)ccc(C(=O)Nc2nnc(C)o2)c1F (stereo not drawn) [Compound 1-8]
- Abutilion theophrasti (activity level) (Abutilon theophrasti [1]; Table 2, dose 60 g a.i./ha): 5 (Level 5: growth control rate is above 85%)
- Abutilion theophrasti (activity level) (Abutilon theophrasti [1]; Table 2, dose 125 g a.i./ha): 5 (Level 5: growth control rate is above 85%)
- Abutilon theophrasti (activity level) (Abutilon theophrasti [1]; Table 3, dose 60 g a.i./ha): 5 (Level 5: growth control rate is above 85%)
- Digitaria sanguinalis (activity level) (Digitaria sanguinalis [2]; Table 2, dose 60 g a.i./ha): 5 (Level 5: growth control rate is above 85%)
- Digitaria sanguinalis (activity level) (Digitaria sanguinalis [2]; Table 2, dose 125 g a.i./ha): 5 (Level 5: growth control rate is above 85%)
- Digitaria sanguinahs (activity level) (Digitaria sanguinalis [2]; Table 3, dose 60 g a.i./ha): 5 (Level 5: growth control rate is above 85%)
- Echinochloa crusgah (activity level) (Echinochloa crusgalli; Table 2, dose 60 g a.i./ha): 5 (Level 5: growth control rate is above 85%)
- Echinochloa crusgah (activity level) (Echinochloa crusgalli; Table 2, dose 125 g a.i./ha): 5 (Level 5: growth control rate is above 85%)
- Echinochloa crusgali (activity level) (Echinochloa crusgalli; Table 3, dose 60 g a.i./ha): 5 (Level 5: growth control rate is above 85%)
- Setaria viridis (activity level) (Setaria viridis; Table 3, dose 60 g a.i./ha): 5 (Level 5: growth control rate is above 85%)
- Amaranthus retroflexus (activity level) (Amaranthus retroflexus; Table 2, dose 60 g a.i./ha): 5 (Level 5: growth control rate is above 85%)
- Amaranthus retroflexus (activity level) (Amaranthus retroflexus; Table 2, dose 125 g a.i./ha): 5 (Level 5: growth control rate is above 85%)
- Stellaria media (activity level) (Stellaria media; Table 2, dose 60 g a.i./ha): 5 (Level 5: growth control rate is above 85%)
- Stellaria media (activity level) (Stellaria media; Table 2, dose 125 g a.i./ha): 5 (Level 5: growth control rate is above 85%)
- Indica rice (Huanghuazhan) (plant damage level) [3]: 0 (Level 0: growth control rate is less than 5%)
- Japonica rice (Huaidao No. 5) (plant damage level) [4]: 0 (Level 0: growth control rate is less than 5%)
- Selection index between rice and Echinochloa crusgali [5]: >5
- inhibition at 30 g/ha (Abutilon theophrasti [6]): 90%
- inhibition at 30 g/ha (Digitaria sanguinalis [7]): 80%
- inhibition at 30 g/ha (Green Setaria viridis): 10%
- inhibition at 60 g/ha (Green Setaria viridis): 90%
- inhibition at 60 g/ha (Leptochloa chinensis [8]): 30%
- inhibition at 125 g/ha (Leptochloa chinensis [8]): 80%
- Rice (Longyang 16) (250 g a.i./ha) inhibition rate (Rice (Longyang 16)): 5%
- Rice (Longyang 16) (500 g a.i./ha) inhibition rate (Rice (Longyang 16)): 15%
- Echinochloa crusgali (activity level) (Echinochloa crusgali; [11]): 5 (Level 5: growth control rate is above 85%)
- Monochoria vaginalis (activity level) (Monochoria vaginalis; [11]): 5 (Level 5: growth control rate is above 85%)
- Scirpus juncoides (activity level) (Scirpus juncoides): 5 (Level 5: growth control rate is above 85%)
- Rice (safety level) (Rice; Table 7, dose 125 g a.i./ha, 21 days after treatment): 0 (Level 0: growth control rate is less than 5%)
- activity on the gramineous weed relative to Compound 1-2 [9]: much more higher

SMILES: CCC[S@@+]([O-])c1c(C(F)(F)F)ccc(C(=O)Nc2nnc(C)o2)c1F [1-8 (R-configuration)]
- Digitaria sanguinahs (activity level) (Digitaria sanguinalis [2]; Table 3, dose 3.75 g a.i./ha): 4 (Level 4: growth control rate is greater than or equal to 60% and less than 85%)
- Digitaria sanguinahs (activity level) (Digitaria sanguinalis [2]; Table 3, dose 7.5 g a.i./ha): 5 (Level 5: growth control rate is above 85%)
- Digitaria sanguinahs (activity level) (Digitaria sanguinalis [2]; Table 3, dose 15 g a.i./ha): 5 (Level 5: growth control rate is above 85%)
- Digitaria sanguinahs (activity level) (Digitaria sanguinalis [2]; Table 3, dose 30 g a.i./ha): 5 (Level 5: growth control rate is above 85%)
- Digitaria sanguinahs (activity level) (Digitaria sanguinalis [2]; Table 3, dose 60 g a.i./ha): 5 (Level 5: growth control rate is above 85%)
- Echinochloa crusgali (activity level) (Echinochloa crusgalli; Table 3, dose 3.75 g a.i./ha): 5 (Level 5: growth control rate is above 85%)
- Echinochloa crusgali (activity level) (Echinochloa crusgalli; Table 3, dose 7.5 g a.i./ha): 5 (Level 5: growth control rate is above 85%)
- Echinochloa crusgali (activity level) (Echinochloa crusgalli; Table 3, dose 15 g a.i./ha): 5 (Level 5: growth control rate is above 85%)
- Echinochloa crusgali (activity level) (Echinochloa crusgalli; Table 3, dose 30 g a.i./ha): 5 (Level 5: growth control rate is above 85%)
- Echinochloa crusgali (activity level) (Echinochloa crusgalli; Table 3, dose 60 g a.i./ha): 5 (Level 5: growth control rate is above 85%)
- Setaria viridis (activity level) (Setaria viridis; Table 3, dose 3.75 g a.i./ha): 2 (Level 2: growth control rate is greater than or equal to 20% and less than 40%)
- Setaria viridis (activity level) (Setaria viridis; Table 3, dose 7.5 g a.i./ha): 4 (Level 4: growth control rate is greater than or equal to 60% and less than 85%)
- Setaria viridis (activity level) (Setaria viridis; Table 3, dose 15 g a.i./ha): 5 (Level 5: growth control rate is above 85%)
- Setaria viridis (activity level) (Setaria viridis; Table 3, dose 30 g a.i./ha): 5 (Level 5: growth control rate is above 85%)
- Setaria viridis (activity level) (Setaria viridis; Table 3, dose 60 g a.i./ha): 5 (Level 5: growth control rate is above 85%)
- inhibition at 30 g/ha (Abutilon theophrasti [6]): 100%
- inhibition at 30 g/ha (Digitaria sanguinalis [7]): 100%
- inhibition at 30 g/ha (Green Setaria viridis): 75%
- inhibition at 60 g/ha (Green Setaria viridis): 100%
- inhibition at 60 g/ha (Leptochloa chinensis [8]): 85%
- inhibition at 125 g/ha (Leptochloa chinensis [8]): 100%
- activity against key weed Leptochloa chinensis / key weeds, in words (Leptochloa chinensis [8]; in vivo): better activity
- Rice (Longyang 16) (250 g a.i./ha) inhibition rate (Rice (Longyang 16)): 0%
- Rice (Longyang 16) (500 g a.i./ha) inhibition rate (Rice (Longyang 16)): 0%
- safety on rice (Longyang 16), in words (Rice (Longyang 16); in vivo): high safety
- Echinochloa crusgali (activity level) (Echinochloa crusgali; Table 8, dose 60 g a.i./ha): 5 (Level 5: growth control rate is above 85%)
- Leptochloa chinensis (activity level) (Leptochloa chinensis [10]): 5 (Level 5: growth control rate is above 85%)
- Monochoria vaginalis (activity level) (Monochoria vaginalis; Table 8, dose 60 g a.i./ha): 5 (Level 5: growth control rate is above 85%)
- Sagittaria trifolia (activity level) (Sagittaria trifolia): 5 (Level 5: growth control rate is above 85%)
- Rice (safety level) (Rice; Table 8, dose 60 g a.i./ha): 0 (Level 0: growth control rate is less than 5%)
